The values that follow are results of earlier work, collected in paper PMC10535842, “Novel Thiazole-Based SIRT2 Inhibitors Discovered via Molecular Modelling Studies and Enzymatic Assays” (Pharmaceuticals, 2023).

“And” between values parts separate entries of the source, which are not always exact repeats. Equal values may be shown once.

For this series, the system named is SIRT2. Particulars: substrate RHKK(Ac)-AMC; read-out: SIRT2 IC50 (series B, compounds 27-111); cited from earlier work.
Broadly, the IC50 is the concentration that inhibits the measured activity by half. Consider `COc1ccc2ccccc2c1Cn1cnc2sc3c(c2c1=O)CCC(NCc1ccco1)C3` (centres unmarked) [Compound 27], for which the concentration for half-maximal inhibition (IC50) was 5.24 µM. Consider `O=c1c2c3c(sc2ncn1Cc1cccc2ccccc12)CC(NCc1ccco1)CC3` (centres unmarked) [Compound 28], for which the IC50 was 7.61 µM. Regarding `O=c1c2c3c(sc2ncn1Cc1ccc2ccccc2c1)CC(NCc1ccco1)CC3` (centres unmarked) [Compound 29], the concentration for half-maximal inhibition (IC50) was 11.7 µM. In the case of `O=c1c2c3c(sc2ncn1Cc1cccc2cccnc12)CC(NCc1ccco1)CC3` (centres unmarked) [Compound 30], the IC50 was 4.16 µM. In the case of `COc1ccc2ccccc2c1Cn1cnc2sc3c(c2c1=O)CCC(NCc1c(C)nn(C)c1C)C3` (centres unmarked) [Compound 31], the half-maximal inhibitory concentration (IC50) is 5.11 µM. For the compound `Cc1nn(C)c(C)c1CNC1CCc2c(sc3ncn(Cc4cccc5ccccc45)c(=O)c23)C1` (centres unmarked) [Compound 32], the half-maximal inhibitory concentration (IC50) was 4.2 µM. Take `Cc1nn(C)c(C)c1CNC1CCc2c(sc3ncn(Cc4ccc5ccccc5c4)c(=O)c23)C1` (centres unmarked) [Compound 33]: the half-inhibitory concentration (IC50) is 7.43 µM.

Take `COc1ccc2ccccc2c1Cn1cnc2sc3c(c2c1=O)CCC(NCc1c(C)noc1C)C3` (centres unmarked) [Compound 34]: the IC50 is 4 µM.

Consider `Cc1noc(C)c1CNC1CCc2c(sc3ncn(Cc4cccc5ccccc45)c(=O)c23)C1` (centres unmarked) [Compound 35], for which the IC50 is 1.85 µM.

As for `COc1ccc(Cn2cnc3sc4c(c3c2=O)CCC(NCc2c(C)noc2C)C4)c2ccccc12` (centres unmarked) [Compound 36], the concentration for half-maximal inhibition (IC50) was less than 1 µM.

On to `Cc1noc(C)c1CNC1CCc2c(sc3ncn(Cc4cccc5cccnc45)c(=O)c23)C1` (centres unmarked) [Compound 37], for which the IC50 is 6.94 µM. Consider `COc1ccc2ccccc2c1Cn1cnc2sc3c(c2c1=O)CCC(NCc1cccs1)C3` (centres unmarked) [Compound 38], for which the IC50 was 6.03 µM. In the case of `O=c1c2c3c(sc2ncn1Cc1cccc2cccnc12)CC(NCc1cccs1)CC3` (centres unmarked) [Compound 39], the IC50 was 2.56 µM. As for `COc1ccc2ccccc2c1Cn1cnc2sc3c(c2c1=O)CCC(NCc1ccccc1)C3` (centres unmarked) [Compound 40], the IC50 is 21.1 µM. Regarding `O=c1c2c3c(sc2ncn1Cc1ccc2ccccc2c1)CC(NCc1ccccc1)CC3` (centres unmarked) [Compound 41], the half-maximal inhibitory concentration (IC50) was 5.45 µM. As to `O=c1c2c3c(sc2ncn1Cc1cccc2cccnc12)CC(NCc1ccccc1)CC3` (centres unmarked) [Compound 42], the IC50 was 2.5 µM. Take `COc1ccccc1Cn1cnc2sc3c(c2c1=O)CCC(NCc1ccccc1)C3` (centres unmarked) [Compound 43]: the IC50 is 10.4 µM.

With `COc1ccc2ccccc2c1Cn1cnc2sc3c(c2c1=O)CCC(NCc1cccc(F)c1)C3` (centres unmarked) [Compound 44], the 50% inhibitory concentration (IC50) is 4.07 µM. With `O=c1c2c3c(sc2ncn1Cc1cccc2cccnc12)CC(NCc1cccc(F)c1)CC3` (centres unmarked) [Compound 45], the half-maximal inhibitory concentration (IC50) is 1.72 µM. On to `O=c1c2c3c(sc2ncn1Cc1cccc2cccnc12)CC(NCc1cccc(Cl)c1)CC3` (centres unmarked) [Compound 46], for which the half-maximal inhibitory concentration (IC50) was 2.84 µM.

With `O=c1c2c3c(sc2ncn1Cc1cccc2cccnc12)CC(NCc1ccc(Cl)cc1)CC3` (centres unmarked) [Compound 47], the half-maximal inhibitory concentration (IC50) was 1.27 µM. Turning to `O=c1c2c3c(sc2ncn1Cc1cccc2cccnc12)CC(NCc1ccccc1Cl)CC3` (centres unmarked) [Compound 48], the IC50 was 3.8 µM. As for `COc1ccccc1CNC1CCc2c(sc3ncn(Cc4c(OC)ccc5ccccc45)c(=O)c23)C1` (centres unmarked) [Compound 50], the half-maximal inhibitory concentration (IC50) was 2.24 µM.

Regarding `COc1ccccc1CNC1CCc2c(sc3ncn(Cc4ccc5ccccc5c4)c(=O)c23)C1` (centres unmarked) [Compound 51], the IC50 was 4.22 µM.

Consider `COc1ccccc1CNC1CCc2c(sc3ncn(Cc4cccc5cccnc45)c(=O)c23)C1` (centres unmarked) [Compound 52], for which the concentration for half-maximal inhibition (IC50) was 5.61 µM. On to `COc1ccccc1CNC1CCc2c(sc3ncn(Cc4ccccc4OC)c(=O)c23)C1` (centres unmarked) [Compound 53], for which the IC50 was 9.59 µM. As for `COc1cccc(CNC2CCc3c(sc4ncn(Cc5c(OC)ccc6ccccc56)c(=O)c34)C2)c1` (centres unmarked) [Compound 54], the half-inhibitory concentration (IC50) was 1.9 µM.

For `COc1cccc(CNC2CCc3c(sc4ncn(Cc5ccccc5OC)c(=O)c34)C2)c1` (centres unmarked) [Compound 55], the IC50 is 13.4 µM.

Turning to `COc1ccc(CNC2CCc3c(sc4ncn(Cc5c(OC)ccc6ccccc56)c(=O)c34)C2)cc1` (centres unmarked) [Compound 56], the half-maximal inhibitory concentration (IC50) is < 1 µM and 0.65 µM. In the case of `COc1ccc(CNC2CCc3c(sc4ncn(Cc5cccc6ccccc56)c(=O)c34)C2)cc1` (centres unmarked) [Compound 57], the half-inhibitory concentration (IC50) is 3.2 µM. With `COc1ccc(CNC2CCc3c(sc4ncn(Cc5ccc6ccccc6c5)c(=O)c34)C2)cc1` (centres unmarked) [Compound 58], the concentration for half-maximal inhibition (IC50) was 3.82 µM. `COc1ccc(CNC2CCc3c(sc4ncn(Cc5cccc6cccnc56)c(=O)c34)C2)cc1` (centres unmarked) [Compound 59]: the IC50 is 1.83 µM. Turning to `COc1ccc(NC2CCc3c(sc4ncn(Cc5cccc6cccnc56)c(=O)c34)C2)cc1` (centres unmarked) [Compound 60], the IC50 is 2.48 µM. With `Cc1ccc(NC2CCc3c(sc4ncn(Cc5cccc6cccnc56)c(=O)c34)C2)cc1` (centres unmarked) [Compound 61], the half-maximal inhibitory concentration (IC50) is 4.25 µM. For the compound `O=c1c2c3c(sc2ncn1Cc1cccc2cccnc12)CC(Nc1ccc(F)cc1)CC3` (centres unmarked) [Compound 62], the IC50 is < 1 µM and 0.97 µM. For `COc1ccc2ccccc2c1Cn1cnc2sc3c(c2c1=O)CCC(NCc1cccnc1)C3` (centres unmarked) [Compound 63], the IC50 was 1.45 µM. With `O=c1c2c3c(sc2ncn1Cc1cccc2ccccc12)CC(NCc1cccnc1)CC3` (centres unmarked) [Compound 64], the half-maximal inhibitory concentration (IC50) is 2.99 µM. For the compound `O=c1c2c3c(sc2ncn1Cc1cccc2cccnc12)CC(NCc1cccnc1)CC3` (centres unmarked) [Compound 65], the IC50 is 2.92 µM. On to `COc1ccc2ccccc2c1Cn1cnc2sc3c(c2c1=O)CCC(NCc1ccncc1)C3` (centres unmarked) [Compound 66], for which the IC50 is 1.2 µM. On to `O=c1c2c3c(sc2ncn1Cc1cccc2ccccc12)CC(NCc1ccncc1)CC3` (centres unmarked) [Compound 67], for which the half-maximal inhibitory concentration (IC50) was 3.58 µM. Regarding `O=c1c2c3c(sc2ncn1Cc1ccc2ccccc2c1)CC(NCc1ccncc1)CC3` (centres unmarked) [Compound 68], the IC50 is 3.14 µM.

For `O=c1c2c3c(sc2ncn1Cc1cccc2cccnc12)CC(NCc1ccncc1)CC3` (centres unmarked) [Compound 69], the half-maximal inhibitory concentration (IC50) is 3.68 µM. Take `COc1ccc2ccccc2c1Cn1cnc2sc3c(c2c1=O)CCC(NCc1ccccn1)C3` (centres unmarked) [Compound 70]: the 50% inhibitory concentration (IC50) is 3.12 µM. For `O=c1c2c3c(sc2ncn1Cc1cccc2ccccc12)CC(NCc1ccccn1)CC3` (centres unmarked) [Compound 71], the IC50 was 7.68 µM. As for `O=c1c2c3c(sc2ncn1Cc1ccc2ccccc2c1)CC(NCc1ccccn1)CC3` (centres unmarked) [Compound 72], the IC50 was 8.67 µM. Turning to `O=c1c2c3c(sc2ncn1Cc1cccc2cccnc12)CC(NCc1ccccn1)CC3` (centres unmarked) [Compound 73], the IC50 was 2.61 µM.

As for `COc1ccc(CNC2CCc3c(sc4ncn(Cc5c(OC)ccc6ccccc56)c(=O)c34)C2)cn1` (centres unmarked) [Compound 74], the half-inhibitory concentration (IC50) was 1.9 µM. For the compound `COc1ccc(CNC2CCc3c(sc4ncn(Cc5cccc6ccccc56)c(=O)c34)C2)cn1` (centres unmarked) [Compound 75], the half-inhibitory concentration (IC50) is 7.59 µM. Consider `COc1ccc(CNC2CCc3c(sc4ncn(Cc5ccc6ccccc6c5)c(=O)c34)C2)cn1` (centres unmarked) [Compound 76], for which the half-inhibitory concentration (IC50) was 10.2 µM. On to `COc1ccc(CNC2CCc3c(sc4ncn(Cc5cccc6cccnc56)c(=O)c34)C2)cn1` (centres unmarked) [Compound 77], for which the half-maximal inhibitory concentration (IC50) was 2.65 µM. `COc1ccc2ccccc2c1Cn1cnc2sc3c(c2c1=O)CCC(NCCc1cccnc1)C3` (centres unmarked) [Compound 78]: the IC50 is 10.3 µM. On to `O=c1c2c3c(sc2ncn1Cc1cccc2ccccc12)CC(NCCc1cccnc1)CC3` (centres unmarked) [Compound 79], for which the 50% inhibitory concentration (IC50) is 9.57 µM. Regarding `O=c1c2c3c(sc2ncn1Cc1ccc2ccccc2c1)CC(NCCc1cccnc1)CC3` (centres unmarked) [Compound 80], the half-inhibitory concentration (IC50) was 8.68 µM.
